{"source": "patent US20200046703A1", "about": "“COMPOSITIONS AND METHODS FOR TREATMENT OF THE SIDE-EFFECTS ASSOCIATED WITH ADMINISTRATION OF THERAPEUTIC AGENTS” (ASYMMETRIC THERAPEUTICS, LLC, priority 2018, published 2020)", "key": {"proliferating HPEK cells": {"test_system": "proliferating HPEK cells", "assay": "Proliferating HPEK cell viability with/without 5-FU", "type": "cell-based, human", "conditions": "with 5-FU 10 μM, 120 hours", "experimental": "(§1) In another set of experiments, the results of which are shown in Table 2, proliferating HPEK cells, commonly used to assess skin tissue toxicity, were exposed to the clinically-relevant dose of 10 μM of 5-FU and different concentrations of oxypurinol, either alone or with different concentrations of adenine or uracil, using standard tissue culture methods and incubated at 37° C. Oxypurinol concentrations of 0.03 mM, 0.1 mM, and 0.3 mM were tested. Adenine and uracil concentrations of 0.1 mM and 0.3 mM were tested. The relative viability of the cells was determined after 120 hours."}, "confluent HPEK cells": {"test_system": "confluent HPEK cells", "assay": "Confluent HPEK cell viability with/without 5-FU", "type": "cell-based, human", "conditions": "for relative cell viability (AVG): 120 hours; for Relative Protection against 5-FU toxicity / Relative Growth in the presence of 5-FU: HPEK confluent cells; for Relative Protection against 5-FU toxicity: fraction of viability loss prevented; for Relative Growth in the presence of 5-FU: viability with 5-FU divided by viability without 5-FU", "experimental": "Oxypurinol and allopurinol concentrations of 0.3 mM, 1.0 mM, and 3.0 mM, which are ten times higher than those used in the first set of experiments, were tested. An adenine concentration of 0.3 mM, which was the higher concentration used in the first set of experiments, was tested. The relative viability of the cells was determined after 120 hours."}, "proliferating HGEP cells": {"test_system": "proliferating HGEP cells", "assay": "Proliferating HGEP cell viability with/without 5-FU", "type": "cell-based, human", "conditions": "with 5-FU 10 μM, 120 hours", "experimental": "as §1, with “one” for “another”, “1,” for “2,”, “HGEP” for “HPEK”, “oral mucosal” for “skin tissue”"}, "hand-foot syndrome": {"test_system": "hand-foot syndrome", "conditions": "allopurinol at 3%, topical; cited from earlier work"}, "[1]": {"test_system": "mucositis toxicity of 5-FU", "conditions": "maximally-tolerated oral dose of 800 mg/day; 5 μM of 5-FU; cited from earlier work"}, "confluent NHEK cells": {"test_system": "confluent NHEK cells", "assay": "Confluent NHEK cell viability with/without 5-FU", "type": "cell-based, human", "conditions": "for relative cell viability (AVG): 120 hours; for Relative Growth in the presence of 5-FU / Relative Protection against 5-FU toxicity: NHEK; for Relative Protection against 5-FU toxicity: fraction of viability loss prevented", "experimental": "In yet another set of experiments, the results of which are shown in Table 4, confluent NHEK cells were exposed to the clinically-relevant dose of 10 μM of 5-FU and different concentrations of sodium hydroxide, oxypurinol, or allopurinol using standard tissue culture methods and incubated at 37° C. Sodium hydroxide concentrations of 1 mM, 2 mM, 3 mM, and 4 mM were tested. Oxypurinol and allopurinol concentrations of 0.1 mM, 0.3 mM, 1.0 mM, and 3.0 mM were tested, both in the presence and in the absence of 10 μM of 5-FU. The relative viability of the cells was determined after 120 hours. The sodium hydroxide trials were only performed to serve as a control."}}}
{"molecule": "Nc1ncnc2nc[nH]c12", "note": "[Adenine, adenine, reference compound]", "values": [{"measurement": "relative cell viability (AVG)", "setting": "proliferating HPEK cells; 0.1 mM", "value": 0.6214}, {"measurement": "relative cell viability (AVG)", "setting": "proliferating HPEK cells; 0.3 mM", "value": 0.5985}, {"measurement": "relative cell viability (AVG)", "setting": "confluent HPEK cells; 0.3 mM, no 5-FU", "value": 1.3784}, {"measurement": "relative cell viability (AVG)", "setting": "confluent HPEK cells; 0.3 mM, with 5-FU 10 μM", "value": 0.7456}, {"measurement": "relative cell viability (AVG)", "setting": "proliferating HGEP cells; 0.1 mM", "value": 0.7549}, {"measurement": "relative cell viability (AVG)", "setting": "proliferating HGEP cells; 0.3 mM", "value": 0.6389}]}
{"molecule": "Oc1ncnc2[nH]ncc12", "note": "[Allopurinol, allopurinol]", "values": [{"measurement": "relative cell viability (AVG)", "setting": "confluent HPEK cells; 0.3 mM, no 5-FU", "value": 1.1870}, {"measurement": "relative cell viability (AVG)", "setting": "confluent HPEK cells; 0.3 mM, with 5-FU 10 μM", "value": 0.7303}, {"measurement": "relative cell viability (AVG)", "setting": "confluent HPEK cells; 1.0 mM, no 5-FU", "value": 1.2411}, {"measurement": "relative cell viability (AVG)", "setting": "confluent HPEK cells; 1.0 mM, with 5-FU 10 μM", "value": 0.7748}, {"measurement": "relative cell viability (AVG)", "setting": "confluent HPEK cells; 3.0 mM, no 5-FU", "value": 1.0410}, {"measurement": "relative cell viability (AVG)", "setting": "confluent HPEK cells; 3.0 mM, with 5-FU 10 μM", "value": 0.7528}, {"measurement": "Relative Protection against 5-FU toxicity", "setting": "confluent HPEK cells; 0.3 mM", "value": 0.2464}, {"measurement": "Relative Growth in the presence of 5-FU", "setting": "confluent HPEK cells; 0.3 mM", "value": 0.6152}, {"measurement": "Relative Protection against 5-FU toxicity", "setting": "confluent HPEK cells; 1.0 mM", "value": 0.3709}, {"measurement": "Relative Growth in the presence of 5-FU", "setting": "confluent HPEK cells; 1.0 mM", "value": 0.6243}, {"measurement": "Relative Protection against 5-FU toxicity", "setting": "confluent HPEK cells; 3.0 mM", "value": 0.3092}, {"measurement": "Relative Growth in the presence of 5-FU", "setting": "confluent HPEK cells; 3.0 mM", "value": 0.7231}, {"measurement": "effect on cell viability in the presence of 5-FU", "setting": "confluent HPEK cells; concentration range of 0.3 mM to 3.0 mM", "value": "protective effect"}, {"measurement": "therapeutic benefit against HFS", "setting": "hand-foot syndrome", "value": "did not achieve an adequate therapeutic benefit"}, {"measurement": "prevention of mucositis toxicity of 5-FU", "setting": "[1]", "value": "does not prevent the mucositis toxicity"}, {"measurement": "effect on cell viability in the presence of 5-FU", "setting": "confluent NHEK cells; 0.1 mM to 3.0 mM", "value": "protective effect for confluent NHEK cells that was generally less than oxypurinol"}, {"measurement": "relative cell viability (AVG)", "setting": "confluent NHEK cells; 0.1 mM, no 5-FU", "value": 1.0426}, {"measurement": "relative cell viability (AVG)", "setting": "confluent NHEK cells; 0.1 mM, with 5-FU 10 μM", "value": 0.6303}, {"measurement": "relative cell viability (AVG)", "setting": "confluent NHEK cells; 0.1 mM, with 5-FU 10 μM, listed as allopurinol", "value": 0.63}, {"measurement": "relative cell viability (AVG)", "setting": "confluent NHEK cells; 0.3 mM, no 5-FU", "value": 1.1285}, {"measurement": "relative cell viability (AVG)", "setting": "confluent NHEK cells; 0.3 mM, with 5-FU 10 μM", "value": 0.5100}, {"measurement": "relative cell viability (AVG)", "setting": "confluent NHEK cells; 0.3 mM, with 5-FU 10 μM, listed as allopurinol", "value": 0.51}, {"measurement": "relative cell viability (AVG)", "setting": "confluent NHEK cells; 1.0 mM, no 5-FU", "value": 1.1137}, {"measurement": "relative cell viability (AVG)", "setting": "confluent NHEK cells; 1.0 mM, with 5-FU 10 μM", "value": 0.4370}, {"measurement": "relative cell viability (AVG)", "setting": "confluent NHEK cells; 1.0 mM, with 5-FU 10 μM, listed as allopurinol", "value": 0.44}, {"measurement": "Relative Growth in the presence of 5-FU", "setting": "confluent NHEK cells; 3.0 mM, FIG. 2", "value": "less than 41%"}, {"measurement": "relative cell viability (AVG)", "setting": "confluent NHEK cells; 3.0 mM, no 5-FU", "value": 1.0640}, {"measurement": "relative cell viability (AVG)", "setting": "confluent NHEK cells; 3.0 mM, with 5-FU 10 μM", "value": 0.4348}, {"measurement": "relative cell viability (AVG)", "setting": "confluent NHEK cells; 3.0 mM, with 5-FU 10 μM, listed as allopurinol", "value": 0.44}, {"measurement": "Relative Protection against 5-FU toxicity", "setting": "confluent NHEK cells; 0.1 mM", "value": 0.3664}, {"measurement": "Relative Growth in the presence of 5-FU", "setting": "confluent NHEK cells; 0.1 mM, viability with 5-FU divided by viability without 5-FU", "value": 0.6045}, {"measurement": "Relative Protection against 5-FU toxicity", "setting": "confluent NHEK cells; 0.3 mM", "value": 0.1603}, {"measurement": "Relative Growth in the presence of 5-FU", "setting": "confluent NHEK cells; 0.3 mM, viability with 5-FU divided by viability without 5-FU", "value": 0.4519}, {"measurement": "Relative Protection against 5-FU toxicity", "setting": "confluent NHEK cells; 1.0 mM", "value": 0.0352}, {"measurement": "Relative Growth in the presence of 5-FU", "setting": "confluent NHEK cells; 1.0 mM, viability with 5-FU divided by viability without 5-FU", "value": 0.3924}, {"measurement": "Relative Protection against 5-FU toxicity", "setting": "confluent NHEK cells; 3.0 mM", "value": 0.0314}, {"measurement": "Relative Growth in the presence of 5-FU", "setting": "confluent NHEK cells; 3.0 mM, viability with 5-FU divided by viability without 5-FU", "value": 0.4086}, {"measurement": "effect on cell viability in the absence of 5-FU", "setting": "confluent NHEK cells; range of 0.1 mM to 3.0 mM", "value": "small positive effect"}]}
